# Test results taken from patent US10675355B2, “VAR2CSA-drug conjugates” (priority 2013, dated 2020).
# Test system: Karpas 299 human T cell lymphoma tumor
# Assay: Karpas 299 xenograft efficacy study
# Format: in vivo, mice
# Conditions: IV q2dx3: VAR2-Compound O 12, VAR2 12, Compound 886 0.312 mg/kg
# Protocol: Female C.B-17/IcrHsd-Prkdcscid mice (Harlan Laboratories) were implanted subcutaneously in the back with the Karpas 299 human T cell lymphoma tumor cell line. Karpas 299 was established from the peripheral blood of a person with T cell non-Hodgkin's lymphoma in 1986; now classed as CD30+ anaplastic large cell lymphoma (ALCL). The lab stocks were mycoplasma negative. […] The mean tumor volume on treatment day (day 21) was greater than 150 mm^3. Test articles were administered intravenously on Day 1, 3, and 6 (total of three injections) at the doses indicated in the study grouping table. Body weights and tumor volumes were measured every Monday, Wednesday, and Friday. Animals remained on study until their tumors reached 800 mm^3 in size or they otherwise required euthanasia due to achieving a humane endpoint.
smiles,measurement,setting,value
"CN[C@H](C(=O)N[C@H](C(=O)N(C)[C@H](/C=C(\C)C(=O)NS(=O)(=O)c1ccc(N)cc1)C(C)C)C(C)(C)C)C(C)(C)c1ccccc1 [Compound 886, (S,E)-N-(4-Aminophenylsulfonyl)-2,5-dimethyl-4-((S)—N,3,3-trimethyl-2-((S)-3-methyl-2-(methylamino)-3-phenylbutanamido)butanamido)hex-2-enamide]","tumor volume, two-way ANOVA Bonferroni posttests","VAR2 versus, Study Day 21",ns (P > 0.05 = ns (not significant))
same,"tumor volume, two-way ANOVA Bonferroni posttests","VAR2 versus, Study Day 23",ns (P > 0.05 = ns (not significant))
same,"tumor volume, two-way ANOVA Bonferroni posttests","VAR2 versus, Study Day 26",ns (P > 0.05 = ns (not significant))
same,"tumor volume, two-way ANOVA Bonferroni posttests","VAR2 versus, Study Day 28",* (P < 0.05 = *)
same,"tumor volume, two-way ANOVA Bonferroni posttests","VAR2 versus, Study Day 30",** (P < 0.01 = **)
same,"tumor volume, two-way ANOVA Bonferroni posttests","Vehicle versus, Study Day 21",ns (P > 0.05 = ns (not significant))
same,"tumor volume, two-way ANOVA Bonferroni posttests","Vehicle versus, Study Day 23",ns (P > 0.05 = ns (not significant))
same,"tumor volume, two-way ANOVA Bonferroni posttests","Vehicle versus, Study Day 26",* (P < 0.05 = *)
same,"tumor volume, two-way ANOVA Bonferroni posttests","Vehicle versus, Study Day 28",*** (P < 0.001 = ***)
same,"tumor volume, two-way ANOVA Bonferroni posttests","Vehicle versus, Study Day 30",*** (P < 0.001 = ***)
